Data reported in the supplement of paper PMC10307832.

Experiments:
Test in all cases: relative viability (nuclei count vs DMSO), 5 days (fraction); higher = more cells survive
[1] = compound: C/C(=N\NC(=S)N1CCC1)/C2=CC=CC=N2 + O=C(CCCCCCC(=O)Nc1ccccc1)NO [Vorinostat] (partner 1 µM)
Method in brief: (§1)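 Five library-drug doses in √10 steps were combined with a fixed anchor-drug dose, or a single drug was given alone, by pin tool to lung cancer cell lines in 1536-well plates the day after seeding. Nuclei were stained and counted after 5 days. Relative viability is the nuclei count in treated wells over that in vehicle wells, taken as the median of duplicate plates.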

[2] = compound: C/C(=N\NC(=S)N1CCC1)/C2=CC=CC=N2 + Cc1nc(Nc2ncc(C(=O)Nc3c(C)cccc3Cl)s2)cc(N2CCN(CCO)CC2)n1 [Dasatinib] (partner 0.075 µM)
Method in brief: as §1

[3] = compound: C/C(=N\NC(=S)N1CCC1)/C2=CC=CC=N2 + CS(=O)(=O)N1CCN(Cc2cc3nc(-c4cccc5[nH]ncc45)nc(N4CCOCC4)c3s2)CC1 [Pictilisib] (partner 1 µM)
Method in brief: as §1

[4] = compound: C/C(=N\NC(=S)N1CCC1)/C2=CC=CC=N2 + C[C@@H](Oc1cc(-c2cnn(C3CCNCC3)c2)cnc1N)c1c(Cl)ccc(F)c1Cl [Crizotinib] (partner 1 µM)
Method in brief: as §1

Cell Line	relative viability ([1]; first compound 0.05 µM)	relative viability ([1]; first compound 0.1581 µM)	relative viability ([1]; first compound 0.5 µM)	relative viability ([1]; first compound 1.581 µM)	relative viability ([1]; first compound 5 µM)	relative viability ([2]; first compound 0.05 µM)	relative viability ([2]; first compound 0.1581 µM)	relative viability ([2]; first compound 0.5 µM)	relative viability ([2]; first compound 1.581 µM)	relative viability ([2]; first compound 5 µM)	relative viability ([3]; first compound 0.05 µM)	relative viability ([3]; first compound 0.1581 µM)	relative viability ([3]; first compound 0.5 µM)	relative viability ([3]; first compound 1.581 µM)	relative viability ([3]; first compound 5 µM)	relative viability ([4]; first compound 0.05 µM)	relative viability ([4]; first compound 0.1581 µM)	relative viability ([4]; first compound 0.5 µM)	relative viability ([4]; first compound 1.581 µM)	relative viability ([4]; first compound 5 µM)
NCI-H1666	0.575	0.579	0.538	0.501	0.494	0.335	0.307	0.301	0.28	0.296	0.158	0.22	0.234	0.176	0.2	0.204	0.221	0.216	0.195	0.207
NCI-H1734	0.169	0.174	0.145	0.12	0.124	0.152	0.12	0.148	0.112	0.089	0.15	0.151	0.149	0.115	0.139	0.202	0.175	0.156	0.118	0.121
NCI-H1755	0.294	0.226	0.223	0.233	0.225	0.16	0.202	0.157	0.198	0.247	0.171	0.168	0.162	0.157	0.136	0.753	0.664	0.16	0.174	0.176
NCI-H1915	0.108	0.0989	0.117	0.11	0.118	0.117	0.132	0.123	0.115	0.142	0.208	0.189	0.17	0.144	0.153	0.469	0.843	0.169	0.152	0.134
NCI-H1944	0.17	0.154	0.137	0.126	0.135	0.139	0.151	0.153	0.128	0.127	0.229	0.305	0.241	0.182	0.182	0.737	0.909	0.221	0.164	0.149
NCI-H1975	0.173	0.167	0.136	0.154	0.167	0.104	0.0967	0.0846	0.0879	0.0899	0.123	0.136	0.127	0.131	0.136	0.177	0.144	0.159	0.143	0.156
NCI-H1993	0.337	0.539	0.319	0.338	0.446	0.433	0.525	0.525	0.434	0.435	0.743	0.673	0.765	0.676	0.692	0.588	0.536	0.571	0.509	0.443
NCI-H2009	0.0755	0.107	0.129	0.103	0.0974	0.112	0.143	0.145	0.122	0.103	0.144	0.156	0.178	0.172	0.0975	0.112	0.131	0.124	0.149	0.0903
NCI-H2023	0.082	0.0635	0.0543	0.0492	0.043	0.0588	0.071	0.0685	0.0516	0.0624	0.064	0.0997	0.084	0.0661	0.0904	0.1	0.0841	0.08	0.0545	0.0727
NCI-H2085	0.339	0.379	0.355	0.288	0.305	0.209	0.219	0.27	0.259	0.229	0.27	0.301	0.353	0.326	0.296	0.269	0.236	0.25	0.219	0.225
NCI-H2087	0.145	0.0717	0.14	0.0948	0.098	0.129	0.15	0.15	0.107	0.0833	0.302	0.219	0.258	0.205	0.153	0.323	0.274	0.284	0.187	0.171
NCI-H2126	0.184	0.211	0.197	0.186	0.168	0.185	0.18	0.179	0.163	0.187	0.247	0.267	0.254	0.227	0.216	0.671	1.01	0.226	0.187	0.146
NCI-H2170	0.267	0.195	0.161	0.155	0.0916	0.164	0.167	0.145	0.125	0.161	0.158	0.188	0.178	0.192	0.167	1.12	1.09	0.269	0.183	0.162
NCI-H2228	0.231	0.15	0.166	0.156	0.145	0.133	0.121	0.135	–	0.0925	0.148	0.285	0.168	0.163	0.12	0.169	0.213	0.262	0.141	0.149
NCI-H2347	0.315	0.305	0.227	0.276	0.243	0.209	0.199	0.26	0.23	0.179	0.275	0.311	0.286	0.275	0.253	0.557	0.438	0.322	0.233	0.302
NCI-H2405	0.241	0.267	0.252	0.217	0.222	0.219	0.226	0.253	0.228	0.231	0.185	0.206	0.232	0.209	0.275	0.26	0.29	0.307	0.25	0.258
NCI-H3122	0.111	0.077	0.106	0.121	0.103	0.0675	0.0912	0.0839	0.11	0.11	0.15	0.129	0.167	0.23	0.187	0.151	0.171	0.185	0.171	0.176
